# Measured values reported in PubChem BioAssay (NCI).
#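 Results reflect a 48-hour exposure of cells in 96-well plates to compound at five concentrations. At the TGI there is no net growth.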
# Experiments:
# Assay in all cases: DTP human tumour cell line panel, 48 h
# [1] = system: RXF-631 renal
# [2] = system: SNB-19 CNS
# [3] = system: M19-MEL melanoma
# [4] = system: DMS 273 small cell lung
# [5] = system: SF-268 CNS
# [6] = system: DMS 114 small cell lung
# [7] = system: LXFL 529 NSCLC
# [8] = system: KM20L2 colon
# [9] = system: NCI-H522 lung
# [10] = system: ACHN renal
# [11] = system: DLD-1 colon
# [12] = system: HL-60(TB) leukemia
# [13] = system: M14 melanoma
# [14] = system: SNB-75 CNS
# [15] = system: NCI/ADR-RES ovarian
# [16] = system: MDA-MB-435
# [17] = system: MCF7 breast
# [18] = system: BT-549 breast
# [19] = system: A498 renal
# [20] = system: T-47D breast
Structure (SMILES),TGI [1] [µM],TGI [2] [µM],TGI [3] [µM],TGI [4] [µM],TGI [5] [µM],TGI [6] [µM],TGI [7] [µM],TGI [8] [µM],TGI [9] [µM],TGI [10] [µM],TGI [11] [µM],TGI [12] [µM],TGI [13] [µM],TGI [14] [µM],TGI [15] [µM],TGI [16] [µM],TGI [17] [µM],TGI [18] [µM],TGI [19] [µM],TGI [20] [µM]
CCOC(=O)c1ccc(N2C(=O)/C(=C/c3ccc(N(CCC#N)CCC#N)cc3)N=C2c2cc([N+](=O)[O-])ccc2Cl)cc1,> 100,> 100,> 100,> 100,> 100,> 100,> 100,> 100,> 100,> 100,> 100,–,–,–,–,–,–,–,–,–
COC1CCC(O)C(CO)O1 (stereo not drawn),–,–,> 100,–,–,–,> 100,> 100,26.9,> 100,> 100,87,> 100,> 100,–,–,–,–,–,–
NCC(=O)N[C@H]1c2ccsc2/C(=N/O)[C@H]1O,–,–,–,–,–,–,–,–,–,–,–,> 100,> 100,–,> 100,> 100,> 100,> 100,> 100,> 100
